Data on 26 molecules can be found in US12441736B2, “KIF18A inhibitors” (AMGEN INC., priority 2018, dated 2025).

In this test the target is T1, Recombinant human KIF18A (1-467 His-tagged) protein (Homo sapiens, UniProt Q8NI77).
T1 construct: Recombinant human KIF18A (1-467 His-tagged) protein; His; made in house
Nature of the test: KIF18A Enzyme Assay: microtubule-stimulated ATPase activity (ADP-Glo). Format: biochemical. The conditions noted are these: 30 nM KIF18A, 30 μg/mL pig microtubules, 75 μM ATP, ADP-Glo luminescence. In outline: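 IC50 comes from a four-parameter logistic fit over a 22-point, 2-fold series, with ADP quantified by ADP-Glo luminescence. Reactions ran at room temperature: compound plus 30 nM KIF18A(1-467)-His for 15 min, then 75 μM ATP (Km) for 15 min. The buffer held pig microtubules at 30 μg/mL and 1 μM taxol.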

T1 sequence (Q8NI77 1-467): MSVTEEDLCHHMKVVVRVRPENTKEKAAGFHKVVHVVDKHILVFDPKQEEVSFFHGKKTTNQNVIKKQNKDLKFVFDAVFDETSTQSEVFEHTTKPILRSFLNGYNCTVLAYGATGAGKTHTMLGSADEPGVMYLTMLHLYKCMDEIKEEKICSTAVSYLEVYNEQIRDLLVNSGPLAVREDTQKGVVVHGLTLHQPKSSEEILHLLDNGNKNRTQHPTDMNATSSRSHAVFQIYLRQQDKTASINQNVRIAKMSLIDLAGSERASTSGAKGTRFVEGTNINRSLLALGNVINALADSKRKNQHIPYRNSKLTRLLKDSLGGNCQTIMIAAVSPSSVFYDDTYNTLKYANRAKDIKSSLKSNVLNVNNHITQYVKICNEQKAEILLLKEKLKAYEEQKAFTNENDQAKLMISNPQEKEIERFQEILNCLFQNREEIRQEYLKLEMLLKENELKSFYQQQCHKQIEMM
T1 sequence (P02550 whole entry partner): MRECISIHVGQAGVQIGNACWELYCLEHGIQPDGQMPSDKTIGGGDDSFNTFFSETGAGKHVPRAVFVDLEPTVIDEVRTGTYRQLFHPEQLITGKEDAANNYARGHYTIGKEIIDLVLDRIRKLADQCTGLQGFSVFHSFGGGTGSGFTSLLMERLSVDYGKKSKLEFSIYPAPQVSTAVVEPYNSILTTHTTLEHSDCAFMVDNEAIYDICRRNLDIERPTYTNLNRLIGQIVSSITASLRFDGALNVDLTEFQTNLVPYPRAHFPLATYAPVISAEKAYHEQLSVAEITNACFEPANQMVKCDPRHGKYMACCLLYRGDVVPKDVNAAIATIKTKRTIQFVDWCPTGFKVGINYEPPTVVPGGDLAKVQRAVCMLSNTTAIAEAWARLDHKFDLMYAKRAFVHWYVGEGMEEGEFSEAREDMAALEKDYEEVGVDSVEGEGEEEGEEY
T1 sequence (P02554 whole entry partner): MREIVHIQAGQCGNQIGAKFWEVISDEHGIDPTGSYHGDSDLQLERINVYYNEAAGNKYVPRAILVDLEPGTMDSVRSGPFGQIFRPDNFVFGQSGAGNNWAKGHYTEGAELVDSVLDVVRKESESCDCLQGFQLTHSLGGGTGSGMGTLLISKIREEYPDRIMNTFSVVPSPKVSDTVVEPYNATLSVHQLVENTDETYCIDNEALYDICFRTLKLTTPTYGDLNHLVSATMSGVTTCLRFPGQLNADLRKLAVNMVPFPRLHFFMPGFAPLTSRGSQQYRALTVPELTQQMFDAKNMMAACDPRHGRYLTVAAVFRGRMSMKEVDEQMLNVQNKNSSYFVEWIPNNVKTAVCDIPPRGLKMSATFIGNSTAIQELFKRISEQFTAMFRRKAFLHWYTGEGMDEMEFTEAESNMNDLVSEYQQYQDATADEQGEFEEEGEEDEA

For the molecule `CC(C)(CO)Nc1ccc(C(=O)Nc2cccc(N3CCOC(C(F)(F)F)C3)n2)c(N2CCC3(CC2)CC3)n1` (centres unmarked) [Example 205, 6-((1-hydroxy-2-methylpropan-2-yl)amino)-2-(6-azaspiro[2.5]octan-6-yl)-N-(6-(2-(trifluoromethyl)morpholino)pyridin-2-yl)nicotinamide], the IC50 amounted to 0.123 µM.
The figure for `C[C@@H]1CN(c2cccc(NC(=O)c3ncc(NS(C)(=O)=O)nc3N3CCC4(CC3)CC4)n2)CCO1` [Example 121, 3-(6-azaspiro[2.5]octan-6-yl)-N-(6-((2R)-2-methyl-4-morpholinyl)-2-pyridinyl)-5-((methylsulfonyl)amino)-2-pyrazinecarboxamide] is 0.642 µM.
In the case of `C[C@H]1CN(c2cccc(NC(=O)c3ncc(NC(C)(C)CO)nc3N3CCC4(CC3)CC4)n2)C[C@H](C)O1` (racemic) [Example 111, N-(6-((2S,6S)-2,6-dimethylmorpholino)pyridin-2-yl)-5-((1-hydroxy-2-methylpropan-2-yl)amino)-3-(6-azaspiro[2.5]octan-6-yl)pyrazine-2-carboxamide], the IC50 amounted to 0.11 µM.
As to `CC(C)(CO)Nc1ccc(C(=O)Nc2cccc(NCCO)n2)c(N2CCC3(CC2)CC3)n1` [Example 226, 2-(6-azaspiro[2.5]octan-6-yl)-N-(6-((2-hydroxyethyl)amino)-2-pyridinyl)-6-((1-hydroxy-2-methyl-2-propanyl)amino)-3-pyridinecarboxamide], the IC50 was found to be 0.392 µM.
The figure for `CC(C)(CO)Nc1ccc(C(=O)Nc2cc(C3CC3)cc(N3CCOCC3)n2)c(N2CCC3(CC2)CC3)n1` [Example 160, 2-(6-azaspiro[2.5]octan-6-yl)-N-(4-cyclopropyl-6-(4-morpholinyl)-2-pyridinyl)-6-((1-hydroxy-2-methyl-2-propanyl)amino)-3-pyridinecarboxamide] is 0.278 µM; for `CC(O)(c1ccc(C(=O)Nc2cccc(N3CCOCC3)n2)c(N2CCC3(CC2)CC3)n1)C(F)(F)F` (single isomer, unassigned) [Example 141] it is 0.088 µM; for `C[C@@H]1CN(c2cccc(NC(=O)c3ncc(N4C(=O)OCC4(C)C)nc3N3CCC4(CC3)CC4)n2)CCO1` [Example 103, 3-(6-azaspiro[2.5]oct-6-yl)-5-(4,4-dimethyl-2-oxo-1,3-oxazolidin-3-yl)-N-(6-((2R)-2-methyl-4-morpholinyl)-2-pyridinyl)-2-pyrazinecarboxamide] it is 1.94 µM.
The same measure for `CC(C)(CO)Nc1cnc(C(=O)Nc2cc(Cl)cc(N3CCOCC3)n2)c(N2CCC3(CC2)CC3)n1` [Example 113, 3-(6-azaspiro[2.5]oct-6-yl)-N-(4-chloro-6-(4-morpholinyl)-2-pyridinyl)-5-((1-hydroxy-2-methyl-2-propanyl)amino)-2-pyrazinecarboxamide]: 0.112 µM; for `CC1(C)CC(=O)N(c2cccc(NC(=O)c3ncc(NC(C)(C)CO)nc3N3CCC4(CC3)CC4)n2)C1` [Example 107, 3-(6-azaspiro[2.5]oct-6-yl)-N-(6-(4,4-dimethyl-2-oxo-1-pyrrolidinyl)-2-pyridinyl)-5-((1-hydroxy-2-methyl-2-propanyl)amino)-2-pyrazinecarboxamide]: 0.111 µM.
The figure for `C[C@@H]1CN(c2cccc(NC(=O)c3ccc(N4C(=O)OCC4(C)C)nc3N3CCC4(CC3)CC4)n2)CCO1` [Example 165, 2-(6-azaspiro[2.5]octan-6-yl)-6-(4,4-dimethyl-2-oxo-1,3-oxazolidin-3-yl)-N-(6-((2R)-2-methyl-4-morpholinyl)-2-pyridinyl)-3-pyridinecarboxamide] is 0.663 µM; for `CC(C)(CO)Nc1ccc(C(=O)Nc2cccc(N3CCOC(C(C)(C)O)C3)n2)c(N2CCC3(CC2)CC3)n1` (centres unmarked) [Example 186, 6-((1-hydroxy-2-methylpropan-2-yl)amino)-N-(6-(2-(2-hydroxypropan-2-yl)morpholino)pyridin-2-yl)-2-(6-azaspiro[2.5]octan-6-yl)nicotinamide] it is 0.365 µM.
Consider `CC(C)N1CCN(c2cccc(NC(=O)c3ccc(NC(C)(C)CO)nc3N3CCC4(CC3)CC4)n2)CC1` [Example 188, 2-(6-azaspiro[2.5]octan-6-yl)-6-((1-hydroxy-2-methyl-2-propanyl)amino)-N-(6-(4-(2-propanyl)-1-piperazinyl)-2-pyridinyl)-3-pyridinecarboxamide], for which the IC50 stood at 2.26 µM.
Turning to `COc1cc(NC(=O)c2ccc(NC(C)(C)CO)nc2N2CCC3(CC2)CC3)nc(N2CCOCC2)c1` [Example 158, 2-(6-azaspiro[2.5]octan-6-yl)-6-((1-hydroxy-2-methyl-2-propanyl)amino)-N-(4-methoxy-6-(4-morpholinyl)-2-pyridinyl)-3-pyridinecarboxamide], the IC50 was found to be 0.402 µM.
The same measure for `CC(C)(CO)Nc1cccc(NC(=O)c2ccc(NC(C)(C)CO)nc2N2CCC3(CC2)CC3)n1` [Example 162, 2-(6-azaspiro[2.5]octan-6-yl)-6-((1-hydroxy-2-methyl-2-propanyl)amino)-N-(6-((1-hydroxy-2-methyl-2-propanyl)amino)-2-pyridinyl)-3-pyridinecarboxamide]: 0.0707 µM; for `CC1(C)CC(=O)N(c2cccc(NC(=O)c3ccc(NC(C)(C)CO)nc3N3CCC4(CC3)CC4)n2)C1` [Example 135, 2-(6-azaspiro[2.5]oct-6-yl)-N-(6-(4,4-dimethyl-2-oxo-1-pyrrolidinyl)-2-pyridinyl)-6-((2-hydroxy-1,1-dimethylethyl)amino)-3-pyridinecarboxamide]: 0.11 µM; for `C[C@@H]1CN(c2cccc(NC(=O)c3ccc(S(N)(=O)=O)nc3N3CCC4(CC3)CC4)n2)CCO1` [Example 224, 2-(6-azaspiro[2.5]octan-6-yl)-N-(6-((2R)-2-methyl-4-morpholinyl)-2-pyridinyl)-6-sulfamoyl-3-pyridinecarboxamide]: 0.0688 µM.
Consider `CC(C)(C)NS(=O)(=O)c1cccc(NC(=O)c2ccc(NC(C)(C)CO)nc2N2CCC3(CC2)CC3)n1` [Example 123, 2-(6-azaspiro[2.5]oct-6-yl)-N-(6-(tert-butylsulfamoyl)-2-pyridinyl)-6-((2-hydroxy-1,1-dimethylethyl)amino)-3-pyridinecarboxamide], for which the IC50 came to 0.064 µM.
The same measure for `CC(C)(CO)Nc1ccc(C(=O)Nc2cccc(N3CCCC3)n2)c(N2CCC3(CC2)CC3)n1` [Example 125, 2-(6-azaspiro[2.5]oct-6-yl)-6-((2-hydroxy-1,1-dimethylethyl)amino)-N-(6-(1-pyrrolidinyl)-2-pyridinyl)-3-pyridinecarboxamide]: 0.136 µM; for `CC(C)(C)NS(=O)(=O)c1cccc(NC(=O)c2ccc(C(F)CO)nc2N2CCC3(CC2)CC3)n1` (centres unmarked) [Example 195, N-(6-(N-(tert-butyl)sulfamoyl)pyridin-2-yl)-6-(1-fluoro-2-hydroxyethyl)-2-(6-azaspiro[2.5]octan-6-yl)nicotinamide]: 0.196 µM; for `CC(C)(C)NS(=O)(=O)c1cccc(NC(=O)c2ccc(C(C)(O)C(F)(F)F)nc2N2CCC3(CC2)CC3)n1` (racemic) [Example 143, N-(6-(N-(tert-butyl)sulfamoyl)pyridin-2-yl)-2-(6-azaspiro[2.5]octan-6-yl)-6-(1,1,1-trifluoro-2-hydroxypropan-2-yl)nicotinamide]: 0.0904 µM.
The same measure for `CC(C)(C)NS(=O)(=O)c1cccc(NC(=O)c2ccc(C(O)(CO)C(F)(F)F)nc2N2CCC3(CC2)CC3)n1` (racemic) [Example 172, N-(6-(N-(tert-butyl)sulfamoyl)pyridin-2-yl)-2-(6-azaspiro[2.5]octan-6-yl)-6-(1,1,1-trifluoro-2,3-dihydroxypropan-2-yl)nicotinamide]: 0.12 µM.
The figure for `Cc1cc(NC(=O)c2ccc(NC(C)(C)CCO)nc2N2CCC3(CC2)CC3)nc(N2CCOCC2)c1` [Example 211, 2-(6-azaspiro[2.5]octan-6-yl)-6-((4-hydroxy-2-methyl-2-butanyl)amino)-N-(4-methyl-6-(4-morpholinyl)-2-pyridinyl)-3-pyridinecarboxamide] is 0.142 µM.
With `CC(C)(CO)Nc1ccc(C(=O)Nc2cccc(-c3ncco3)n2)c(N2CCC3(CC2)CC3)n1` [Example 122, 2-(6-azaspiro[2.5]oct-6-yl)-6-((2-hydroxy-1,1-dimethylethyl)amino)-N-(6-(1,3-oxazol-2-yl)-2-pyridinyl)-3-pyridinecarboxamide], the IC50 stood at 0.316 µM.
The figure for `CC(CO)(CO)Nc1ccc(C(=O)Nc2cccc(N3CCC(F)(F)C3)n2)c(N2CCC3(CC2)CC3)n1` [Example 149, 2-(6-azaspiro[2.5]oct-6-yl)-N-(6-(3,3-difluoro-1-pyrrolidinyl)-2-pyridinyl)-6-((1,3-dihydroxy-2-methyl-2-propanyl)amino)-3-pyridinecarboxamide] is 0.0591 µM.
The same measure for `CC(c1ccc(C(=O)Nc2cccc(N3CCO[C@H](C)C3)n2)c(N2CCC3(CC2)CC3)n1)S(C)(=O)=O` (stereo partly drawn) [Example 244, N-(6-((R)-2-methylmorpholino)pyridin-2-yl)-6-(1-(methylsulfonyl)ethyl)-2-(6-azaspiro[2.5]octan-6-yl)nicotinamide]: 0.0512 µM; for `CC(C)(C)NS(=O)(=O)c1cccc(NC(=O)c2ccc([C@@](C)(O)CO)nc2N2CCC3(CC2)CC3)n1` (single isomer, unassigned) [Example 178]: 0.109 µM.
